System: lipid oxidation in 1-stearoyl-2-linoleoyl-sn-glycero-3-phosphocholine large unilamellar vesicles (LUVs)
Assay: Fluorescence assay for antioxidant activity (DPH-PA probe, Fe2+-induced lipid peroxidation in large unilamellar vesicles)
Format: biochemical
Details: pH 7.0; for % of inhibition (percent inhibition based upon Fe+2 oxidation): 21 min
Excerpt: The fluorescent assay is described first.
Fluorescence assay for antioxidant activity (general): The need to screen large numbers of compounds or extracts for antioxidant activity requires that a model system (or systems) be employed which reasonably well represents the structural and functional characteristics of the substrate in the food product. The test must also be sensitive, rapid, and inexpensive. […] Large unilamellar vesicles consisting of 1-stearoyl-2-linoleoly-sn-glycero-3-phosphocholine are prepared, which closely resemble the properties of biological membranes, one of the primary sites of peroxidation. A fluorescent probe, 1,6-diphenylhexatriene propionic acid, is incorporated into the membranes such that the polar head group anchors the probe near the aqueous interface, while the hydrophobic portion lies parallel to the fatty acid chains. This probe reacts with the free radicals generated during peroxidation, resulting in a decrease in fluorescence intensity with time. A peroxidation initiator (such as ferrous metal ions or the free radical generator AAPH (Azobis-[2-amidinopropane hydrochloride]) is used to start the reaction, and the kinetics of fluorescence decrease are determined in the presence or absence of the antioxidant to be tested. An assay for a compound at a given concentration presently takes only twenty-one minutes, consumes only a few micrograms of lipid, and can be readily conducted with a simple fluorometer.
Briefly, the lipid is dissolved in chloroform, and is dried to a thin film using a rotary evaporator. The dried film is resuspended in an aqueous buffer, and is repeatedly extruded through a polycarbonate filter of 100 nm pore size using a Liposofast piposome extruder (Avestin, Inc., Ottawa, Canada). […] The fluorescent probe, diphenylhexatriene-propionic acid (DPH-PA), is incorporated into the vesicles during preparation at a mole ratio of 1:350 (probe:lipid). For the fluorescence experiments, LUVs containing DPH-PA is suspended at a final concentration of 100 μM in 100 mM NaCl, 50 mM tris-HEPES buffer at pH 7.0. The fluorescent probe is excited at 384 nm and emission is monitored at 423 nm. […] AAPH; the progress is monitored by the decrease of the fluorescence intensity of DPH-PA resulting from reaction with free radicals generated over twenty-one minutes. A plot of the decrease of fluorescence intensity as a function of time will be used to determine the kinetics of lipid oxidation.
^1 --Fuorescent intensity at 21 minutes.
^2 --Percent Inhibition based upon Fe^+2 oxidation.

## COc1ccc(O)c(C(C)(C)C)c1 [BHA]
2 μM
  % of inhibition (percent inhibition based upon Fe+2 oxidation): 87.1%
  Fl. int. at 21 min. (fluorescent intensity at 21 minutes): 0.82

## CC(C)(C)c1cc(O)ccc1O [TBHQ]
2 μM
  % of inhibition (percent inhibition based upon Fe+2 oxidation): 90.0%
  Fl. int. at 21 min. (fluorescent intensity at 21 minutes): 0.84

## C[C@@H]1O[C@@H](OC[C@H]2O[C@@H](Oc3cc4c(O)cc(O)cc4[o+]c3-c3ccc(O)c(O)c3)[C@H](O)[C@@H](O)[C@@H]2O)[C@H](O)[C@H](O)[C@H]1O [Anthocyanin II, Cyanidin-3-(6"-O-α-L-rhamnopyranosyl-β-D-glucopyranoside)]
Concentration not given
  % of inhibition (percent inhibition based upon Fe+2 oxidation): 70.0%
  Fl. int. at 21 min. (fluorescent intensity at 21 minutes): 0.7

## Cc1c(C)c2c(c(C)c1O)CCC(C)(CCCC(C)CCCC(C)CCCC(C)C)O2 (centres unmarked) [a-Tocopherol]
2 μM
  % of inhibition (percent inhibition based upon Fe+2 oxidation): 0.0%
  Fl. int. at 21 min. (fluorescent intensity at 21 minutes): 0.21

## Cc1cc(C(C)(C)C)c(O)c(C(C)(C)C)c1 [BHT]
2 μM
  % of inhibition (percent inhibition based upon Fe+2 oxidation): 94.3%
  Fl. int. at 21 min. (fluorescent intensity at 21 minutes): 0.87

## CCCOC(=O)c1cc(O)c(O)c(O)c1 [Propyl gallate]
2 μM
  % of inhibition (percent inhibition based upon Fe+2 oxidation): 78.6%
  Fl. int. at 21 min. (fluorescent intensity at 21 minutes): 0.76

## C[C@@H]1O[C@@H](OC[C@H]2O[C@@H](Oc3cc4c(O)cc(O)cc4[o+]c3-c3ccc(O)c(O)c3)[C@H](O[C@@H]3O[C@H](CO)[C@@H](O)[C@H](O)[C@H]3O)[C@@H](O)[C@@H]2O)[C@H](O)[C@H](O)[C@H]1O [Anthocyanin 1, Cyanidin-3-(2"-O-β-D-glucopyranosyl-6"-O-α-L-rhamnosyl-β-D-glucopyranoside)]
2 μM
  % of inhibition (percent inhibition based upon Fe+2 oxidation): 38.6%
  Fl. int. at 21 min. (fluorescent intensity at 21 minutes): 0.48

Source: patent US5985636A, “Method and compositions for inhibiting oxidation” (priority 1997, dated 1999)
